# According to US20170348288A1, “DOSING REGIMENS FOR BETA-3 ADRENOCEPTOR AGONISTS AND ANTI-MUSCARINIC AGENTS FOR THE TREATMENT AND PREVENTION OF LOWER URINARY TRACT SYMPTOMS AND OVERACTIVE BLADDER” (VELICEPT THERAPEUTICS, INC., priority 2016, published 2017):
# Experiments:
# [1] = target: T1, murine adipocyte beta-3 adrenoceptor (Mus musculus, UniProt P25962); conditions: literature report, cited from earlier work
# T1 construct: host or cells: murine adipocytes (no further detail)
# [2] = target: T2, beta-3 adrenoceptor (Rattus norvegicus, UniProt P26255); experiment: Pilot cumulative concentration response curves to determine EC90 for inhibition of EFS-induced contraction in rat isolated bladder; conditions: rat isolated bladder strips, EFS 15 Hz, CCRC half-log increments; calculated values; read-out: EC90 concentration to inhibit EFS-induced contraction in rat isolated bladder
# T2 construct: The bladder longitudinal smooth muscle, with the urothelium still attached were mounted in 25 ml organ baths; from tissue; host or cells: rat urinary bladder (longitudinal smooth muscle with urothelium), male CD rats
# Experimental: Macroscopically normal bladders from Male CD rats (220-250 g) were used. […] Each bladder was cleaned free of surrounding connective tissue and halved longitudinally. The bladder longitudinal smooth muscle, with the urothelium still attached were mounted in 25 ml organ baths containing physiological saline solution (PSS) (composition: 119.0 mM NaCl, 4.7 mM KCl, 1.2 mM MgSO4, 24.9 mM NaHCO3, 1.2 mM KH2PO4, 2.5 mM CaCl2 and 11.1 mM glucose) supplemented with 1 μM prazosin (α1-adrenoceptor antagonist) and 30 nM ICI118551 (β2-adrenoceptor antagonist), aerated with 95% O2/5% CO2 gas mix, warmed and maintained at approximately 37° C. throughout the experiment. Changes in force production were recorded using transducers. […]
# EFS parameters and viability check: In initial experiments the parameters for the EFS were assessed by performing a frequency curve to determine a frequency that would give a response that was approximately 80% of the response seen to 80 mM KCl. Optimal EFS parameters were determined to be: 30 Volts, square pulse of 0.1 ms, train of 4 seconds every 120 seconds, 15 Hz. […]
# Pilot studies to determine EC90 concentrations of the test compounds were performed. […] From the data obtained in these experiments, EC90 concentrations of the test compounds were determined for use in subsequent experiments. […]
# [3] = target: T2, beta-3 adrenoceptor; experiment: Desensitization and washout: CCRC on EFS-induced contraction of rat bladder strips after pre-incubation with the EC90 concentration and washing with PSS
# Experimental: Macroscopically normal bladders from Male CD rats (220-250 g) were used. […] Each bladder was cleaned free of surrounding connective tissue and halved longitudinally. The bladder longitudinal smooth muscle, with the urothelium still attached were mounted in 25 ml organ baths containing physiological saline solution (PSS) (composition: 119.0 mM NaCl, 4.7 mM KCl, 1.2 mM MgSO4, 24.9 mM NaHCO3, 1.2 mM KH2PO4, 2.5 mM CaCl2 and 11.1 mM glucose) supplemented with 1 μM prazosin (α1-adrenoceptor antagonist) and 30 nM ICI118551 (β2-adrenoceptor antagonist), aerated with 95% O2/5% CO2 gas mix, warmed and maintained at approximately 37° C. throughout the experiment. Changes in force production were recorded using transducers. After mounting, the bladder halves were allowed to equilibrate for at least 30 min before they were set to a stable tension of approximately 1.0 g. The tissue was then allowed to equilibrate over at least a 60 min period with washes every 15 min.
# EFS parameters and viability check: In initial experiments the parameters for the EFS were assessed by performing a frequency curve to determine a frequency that would give a response that was approximately 80% of the response seen to 80 mM KCl. Optimal EFS parameters were determined to be: 30 Volts, square pulse of 0.1 ms, train of 4 seconds every 120 seconds, 15 Hz. This frequency was then used to stimulate the tissue for all subsequent experiments. The viability of bladder strips was tested by stimulating the tissue with EFS for minimum of ten min.
# The bladder muscle strips were incubated with the EC90 determined for each test compound in the pilot studies, for a period of 1 or 3 hr. Following compound incubation, the tissues were washed with PSS for a period of 1, 3 or 6 hr, with washes approximately every 15 min, to remove the drug. At the end of the final wash period the tissues were stimulated with EFS, and left to equilibrate for at least 30 min. -A CCRC was then performed in each tissue.
# [4] = three hr incubation with EC90, one hr of washing
# [5] = three hr incubation, low and mid-concentration range
# T2 sequence (P26255 whole entry): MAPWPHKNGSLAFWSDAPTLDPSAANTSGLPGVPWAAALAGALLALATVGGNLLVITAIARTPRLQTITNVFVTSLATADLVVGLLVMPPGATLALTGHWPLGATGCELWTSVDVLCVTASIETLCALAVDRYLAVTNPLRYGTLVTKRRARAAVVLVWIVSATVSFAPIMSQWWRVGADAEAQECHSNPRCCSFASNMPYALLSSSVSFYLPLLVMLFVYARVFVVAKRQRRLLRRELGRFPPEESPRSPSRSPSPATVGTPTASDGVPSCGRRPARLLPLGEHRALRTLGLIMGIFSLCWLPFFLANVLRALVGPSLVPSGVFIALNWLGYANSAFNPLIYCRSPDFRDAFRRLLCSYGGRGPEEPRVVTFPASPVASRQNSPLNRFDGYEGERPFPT
# T1 sequence (P25962 whole entry): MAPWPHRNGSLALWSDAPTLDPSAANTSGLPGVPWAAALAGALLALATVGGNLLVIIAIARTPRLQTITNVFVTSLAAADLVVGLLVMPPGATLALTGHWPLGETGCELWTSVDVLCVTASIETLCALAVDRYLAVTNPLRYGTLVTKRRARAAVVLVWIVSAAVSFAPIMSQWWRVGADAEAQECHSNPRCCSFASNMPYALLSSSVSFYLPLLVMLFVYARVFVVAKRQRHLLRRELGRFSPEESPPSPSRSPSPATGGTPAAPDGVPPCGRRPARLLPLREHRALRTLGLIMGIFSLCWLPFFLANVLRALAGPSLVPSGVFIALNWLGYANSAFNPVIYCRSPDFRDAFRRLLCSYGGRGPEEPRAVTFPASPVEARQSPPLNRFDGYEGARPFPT
SMILES,Functional response following prolonged exposure to the beta-3 agonist ([1]; murine adipocytes),Effect on murine adipocyte beta-3 adrenoceptor [1],EC90 [2],"Responses to the agonist (CCRC, reduction of EFS-induced contraction) vs vehicle-incubated tissue [3, 4]","Potentiation of EFS-induced contraction from baseline [3, 5]",Concentration range in which the EFS-mediated response was potentiated ([3]; following 1 or 3 hr of washout),"Responses to the agonist (CCRC, reduction of EFS-induced contraction) vs vehicle-incubated tissue ([3]; one hr incubation with EC90, one hr of washing with PSS)","Responses to the agonist (CCRC, reduction of EFS-induced contraction) vs vehicle-incubated tissue ([3]; one hr incubation with EC90, three hr of washing, higher concentrations)","Potentiation of EFS-induced contraction from baseline ([3]; one hr incubation, lower and mid-concentration range)","Responses to the agonist (CCRC, reduction of EFS-induced contraction) vs vehicle-incubated tissue ([3]; three hr incubation with EC90, three hr of washing, highest concentrations)"
"C[C@H](Cc1ccc2c(c1)OC(C(=O)[O-])(C(=O)[O-])O2)NC[C@H](O)c1cccc(Cl)c1.[Na+].[Na+] [CL-316,243]",attenuated,down-regulation,0.042 µM,significantly attenuated,not observed,–,–,–,–,–
"Nc1nc(CC(=O)Nc2ccc(CCNC[C@H](O)c3ccccc3)cc2)cs1 [mirabegron, (R)-2-(2-aminothiazol-4-yl)-N-(4-(2-((2-hydroxy-2-phenylethyl)amino)ethyl)phenyl)acetamide]",–,–,15.3 µM,significantly attenuated,marked potentiation of EFS-induced contraction,10 to 1000 nM,significantly attenuated,significantly attenuated,marked potentiation of EFS-induced contraction,significantly attenuated
